In patent US20230240297A1, “SELECTIVE HERBICIDES BASED ON SUBSTITUTED ISOXAZOLIN CARBOXAMIDES AND CYPROSULFAMIDE” (Bayer Aktiengesellschaft, priority 2020, published 2023):

Key:
Type in all cases: in vivo, maize
ZEAMA Sileno [1] = test: Treatment 1 day before (safener applied one day before herbicide, post-emergence); parameters: key to Reduction [Difference]: percentage points of visually scored % crop damage vs untreated control; settings: for Reduction [%] / Reduction [Difference]: cyprosulfamide 100 g a.i./ha 1 day before; for HER effect + SAF: cyprosulfamide 100 g a.i./ha applied 1 day before; for HER effect + SAF / HER effect: Final assessment; for HER effect: no safener
Source text: Seeds of crops (spring wheat, TRZAS; spring barley, HORVS; maize, ZEAMA) were placed in sandy loam soil in pots of a diameter of 7-8 cm, covered with soil, and cultivated in a greenhouse under good growth conditions until plants were at the 1-3 leaf stage (BBCH 11-13). For split safener and herbicide treatment, first the safener was applied followed by the herbicide treatment on the following day. The safener and herbicides were formulated as WP and sprayed onto the green parts of the plants as an aqueous suspension at an equivalent water application rate of 300 1/ha, with addition of wetting agent and adjuvants (e.g. Mero, 1.5 1/ha; ammonium sulphate, 2 kg/ha). An equivalent set of plants was treated with the herbicides but without the prior safener treatment.
After application, the test plants were kept in the greenhouse under good growth conditions. 10 and 21 days after treatment (DAT) with the herbicide, % crop damage observed on the treated plants was scored visually in comparison to control plants that had not received any safener or herbicide treatment.

ZEAMA Abraxas = test: Tank-mix; post-emergence, crop damage with and without safener; settings: for HER effect + SAF / HER effect: Final assessment; for HER effect: no safener
Description: (§1) Seeds of crops (spring wheat, TRZAS; spring barley, HORVS; maize, ZEAMA) were placed in sandy loam soil in peat pots, covered with soil and cultivated in a greenhouse under good growth conditions. Two to three weeks after sowing, the test plants were treated at the 1 to 3-leaf stage. The herbicide/safener active compound combinations according to the invention, formulated as wettable powders or emulsion concentrates, and, in parallel tests, the correspondingly formulated individual active compounds were sprayed onto the green parts of the plants in various dosages using an amount of water of 300 1/ha (converted).
(§2) The pots were returned under good growing conditions in a glasshouse and a visual assessment of herbicidal effects was made at intervals from 1 to 3 weeks after herbicide application (DAT = days after treatment). Assessment was on a percentage basis in comparison with untreated control plants (0% = no injury, 100% = complete kill).

ZEAMA Sileno [2] = test: Seed treatment with safener; post-emergence herbicide application; parameters: Reduction [Difference]: scale not given here; settings: Final assessment; for Reduction [%] / Reduction [Difference]: Cyprosulfamide 0.5 g a.i./kg seed; for Reduction [Difference]: damage without safener - damage with safener; for HER effect + SAF (crop damage with safener): Cyprosulfamide seed treatment 0.5 g a.i./kg seed; for HER effect (crop damage, herbicide without safener): no safener
Description: For the safener seed treatment, sufficient seeds of the respective crops (spring wheat, TRZAS; spring barley, HORVS; maize, ZEAMA) were weighed into screw top glass bottles approximately twice the volume of the seeds.
The specified safeners, formulated as wettable powder (WP) were weighed out so that the specified rates (g a.i./kg seed) would be obtained, dissolved in water (1 ml water per 10 g of seeds), and added to the seeds to produce a slurry.
The bottles were capped and then placed in an overhead shaker (set at medium speed for ca. 60 minutes) so that the seeds were evenly coated with the slurry. The bottles were uncapped and the seeds were either placed on paper and dried for an interval of 3-4 hours prior to sowing, or directly sown. Seeds were placed in sandy loam soil in pots of a diameter of 7-8 cm, covered with soil, and cultivated in a greenhouse under good growth conditions.
Post-emergence application of the specified herbicides was done when the plants had reached growth stage BBCH11-13, on two sets of plants:
a) seed treatment with safener, as described above b) no safener treatment
The herbicides were formulated as WP and sprayed onto the green parts of the plants as an aqueous suspension at an equivalent water application rate of 300 1/ha, with addition of wetting agent and adjuvants (e.g. Mero, 1.5 1/ha; ammonium sulphate, 2 kg/ha)
After application, the test plants were kept in the greenhouse under good growth conditions.
Values in the table below are mean values of at least 2 replicates.

ZEAMA Sileno [3] = test: Tank-mix; post-emergence, crop damage with and without safener; settings: for HER effect + SAF / HER effect: Final assessment; for HER effect: no safener
Description: as §1, §2

[4] = HER 32 g a.i./ha, cyprosulfamide 100 g a.i./ha
[5] = HER dose 32 g a.i./ha + cyprosulfamide 100 g a.i./ha tank-mix
[6] = HER 2 g a.i./ha, cyprosulfamide 50 g a.i./ha
[7] = HER 2 g a.i./ha, cyprosulfamide 50 g a.i./ha, damage without safener - damage with safener
[8] = HER 8 g a.i./ha, cyprosulfamide 50 g a.i./ha
[9] = HER dose 2 g a.i./ha + cyprosulfamide 50 g a.i./ha tank-mix
[10] = HER dose 2 g a.i./ha, 0% = no injury, 100% = complete kill
[11] = HER dose 8 g a.i./ha + cyprosulfamide 50 g a.i./ha tank-mix

Structure (SMILES)	Reduction [%] (ZEAMA Sileno [1]; HER 32 g a.i./ha)	Reduction [Difference] (ZEAMA Sileno [1]; HER 32 g a.i./ha)	HER effect + SAF (ZEAMA Sileno [1]; HER dose 32 g a.i./ha) [%]	HER effect (ZEAMA Sileno [1]; HER dose 32 g a.i./ha) [%]	Reduction [%] (ZEAMA Sileno [2]; HER dose 8 g a.i./ha)	Reduction [Difference] (ZEAMA Sileno [2]; HER dose 8 g a.i./ha)	HER effect + SAF (crop damage with safener) (ZEAMA Sileno [2]; HER dose 8 g a.i./ha) [%]	HER effect (crop damage, herbicide without safener) (ZEAMA Sileno [2]; HER dose 8 g a.i./ha) [%]	Reduction [%] (ZEAMA Sileno [2]; HER dose 32 g a.i./ha)	Reduction [Difference] (ZEAMA Sileno [2]; HER dose 32 g a.i./ha)	HER effect + SAF (crop damage with safener) (ZEAMA Sileno [2]; HER dose 32 g a.i./ha) [%]	HER effect (crop damage, herbicide without safener) (ZEAMA Sileno [2]; HER dose 32 g a.i./ha) [%]	Reduction [%] (ZEAMA Sileno [1]; HER 8 g a.i./ha)	Reduction [Difference] (ZEAMA Sileno [1]; HER 8 g a.i./ha)	HER effect + SAF (ZEAMA Sileno [1]; HER dose 8 g a.i./ha) [%]	HER effect (ZEAMA Sileno [1]; HER dose 8 g a.i./ha) [%]	Reduction [%] (ZEAMA Sileno [3]; [8])	Reduction [Difference] (ZEAMA Sileno [3]; [8])	HER effect + SAF (ZEAMA Sileno [3]; [11]) [%]	HER effect (ZEAMA Sileno [3]; HER dose 8 g a.i./ha) [%]	other results
COCCOC(=O)C1C=CC(NC(=O)C2(CCl)CC(c3cc(F)cc(F)c3)=NO2)C1 (stereo not drawn) [Example 1.1]	79	55	15	70	100	30	0	30	100	70	0	70	–	–	–	–	–	–	–	–	Reduction [%] (ZEAMA Abraxas; [4]): 84%; Reduction [Difference] (ZEAMA Abraxas; [4]): 80; HER effect + SAF (ZEAMA Abraxas; [5]): 15%; HER effect (ZEAMA Abraxas; HER dose 32 g a.i./ha): 95%
CCOC(=O)C1C=CC(NC(=O)C2(CF)CC(c3cc(F)cc(F)c3)=NO2)C1 (stereo not drawn) [Example 1.17]	59	50	35	85	95	90	5	95	82	70	15	85	63	60	35	95	53	50	45	95	Reduction [%] (ZEAMA Sileno [1]; HER 2 g a.i./ha): 56%; Reduction [Difference] (ZEAMA Sileno [1]; HER 2 g a.i./ha): 25; HER effect + SAF (ZEAMA Sileno [1]; HER dose 2 g a.i./ha): 20%; HER effect (ZEAMA Sileno [1]; HER dose 2 g a.i./ha): 45%; Reduction [%] (ZEAMA Sileno [3]; [6]): 67%; Reduction [Difference] (ZEAMA Sileno [3]; [7]): 30; HER effect + SAF (ZEAMA Sileno [3]; [9]): 15%; HER effect (ZEAMA Sileno [3]; [10]): 45%; Reduction [%] (ZEAMA Sileno [2]; HER dose 2 g a.i./ha): 100%; Reduction [Difference] (ZEAMA Sileno [2]; HER dose 2 g a.i./ha): 45; HER effect + SAF (crop damage with safener) (ZEAMA Sileno [2]; HER dose 2 g a.i./ha): 0%; HER effect (crop damage, herbicide without safener) (ZEAMA Sileno [2]; HER dose 2 g a.i./ha): 45%
CC1(C(=O)NC2C=CC(C(=O)OCCSCc3ccccc3)C2)CC(c2cc(F)cc(F)c2)=NO1 (stereo not drawn) [Example 1.27]	67	40	20	60	83	25	5	30	75	45	15	60	–	–	–	–	–	–	–	–	Reduction [%] (ZEAMA Sileno [3]; [4]): 67%; Reduction [Difference] (ZEAMA Sileno [3]; [4]): 40; HER effect + SAF (ZEAMA Sileno [3]; [5]): 20%; HER effect (ZEAMA Sileno [3]; HER dose 32 g a.i./ha): 60%
CN(C)C(=O)SCCOC(=O)C1C=CC(NC(=O)C2(C)CC(c3cc(F)cc(F)c3)=NO2)C1 (stereo not drawn) [Example 1.29]	73	55	20	75	100	60	0	60	93	70	5	75	67	40	20	60	67	40	20	60	Reduction [%] (ZEAMA Sileno [3]; [4]): 60%; Reduction [Difference] (ZEAMA Sileno [3]; [4]): 45; HER effect + SAF (ZEAMA Sileno [3]; [5]): 30%; HER effect (ZEAMA Sileno [3]; HER dose 32 g a.i./ha): 75%
CC1(C(=O)NC2C=CC(C(=O)O)C2)CC(c2cc(F)cc(F)c2)=NO1 (stereo not drawn) [Example 1.36]	67	50	25	75	94	75	5	80	87	65	10	75	69	55	25	80	63	50	30	80	Reduction [%] (ZEAMA Sileno [1]; HER 2 g a.i./ha): 63%; Reduction [Difference] (ZEAMA Sileno [1]; HER 2 g a.i./ha): 25; HER effect + SAF (ZEAMA Sileno [1]; HER dose 2 g a.i./ha): 15%; HER effect (ZEAMA Sileno [1]; HER dose 2 g a.i./ha): 40%; Reduction [%] (ZEAMA Sileno [3]; [6]): 50%; Reduction [Difference] (ZEAMA Sileno [3]; [7]): 20; HER effect + SAF (ZEAMA Sileno [3]; [9]): 20%; HER effect (ZEAMA Sileno [3]; [10]): 40%; Reduction [%] (ZEAMA Sileno [2]; HER dose 2 g a.i./ha): 88%; Reduction [Difference] (ZEAMA Sileno [2]; HER dose 2 g a.i./ha): 35; HER effect + SAF (crop damage with safener) (ZEAMA Sileno [2]; HER dose 2 g a.i./ha): 5%; HER effect (crop damage, herbicide without safener) (ZEAMA Sileno [2]; HER dose 2 g a.i./ha): 40%
C=CC1(C(=O)NC2C=C(C(=O)OCCOC)OC2)CC(c2cc(C)cc(F)c2)=NO1 (stereo not drawn) [Example 1.89]	–	–	–	–	–	–	–	–	88	22	3	25	–	–	–	–	–	–	–	–	Reduction [%] (ZEAMA Abraxas; [8]): 100%; Reduction [Difference] (ZEAMA Abraxas; [8]): 30; Reduction [%] (ZEAMA Abraxas; [4]): 67%; Reduction [Difference] (ZEAMA Abraxas; [4]): 30; HER effect + SAF (ZEAMA Abraxas; [11]): 0%; HER effect (ZEAMA Abraxas; HER dose 8 g a.i./ha): 30%; HER effect + SAF (ZEAMA Abraxas; [5]): 15%; HER effect (ZEAMA Abraxas; HER dose 32 g a.i./ha): 45%
C=CC1(C(=O)NC2C=C(C(=O)OC)OC2)CC(c2cc(C)cc(C)c2)=NO1 (stereo not drawn) [Example 1.90]	–	–	–	–	73	61	22	83	68	64	30	94	–	–	–	–	–	–	–	–	Reduction [%] (ZEAMA Abraxas; [6]): 88%; Reduction [Difference] (ZEAMA Abraxas; [6]): 22; HER effect + SAF (ZEAMA Abraxas; [9]): 3%; HER effect (ZEAMA Abraxas; HER dose 2 g a.i./ha): 25%
